Test results taken from patent US7736899B1, “Cells and method for producing proteins comprising an unconventional amino acid” (priority 1998, dated 2010).

Assays:
Assay type in all cases: cell-based, E. coli
[1] = tested on: twelve clones derived from strain β5366; test: Growth factor test of clones from serial culture on plates with nutrient factors; conditions: glucose MS mineral medium plates
Procedure: The strain β5366 carrying the thyA:Val146 missense allele on the plasmid pTS1 is cultured in glucose MS mineral medium (2 g/l, Richaud et al., 1993) supplemented with 0.3 mM of thymidine, for 24 h at 30° C. in aerobiosis. The cells are then washed twice with deoxygenated MS mineral medium. A deoxygenated nutrient medium containing 10 ml of glucose MS mineral medium supplemented with 1.5 mM of cysteine is inoculated at 1/100 using the washed cells. The cells are then cultured in anaerobiosis for 24 h at 30° C., and a fresh tube containing 10 ml of deoxygenated cysteine glucose MS mineral medium is inoculated with a 1/100 dilution of the previous culture in the stationary phase. This procedure is repeated 26 times. At the end of this serial propagation, 12 clones from the liquid culture are isolated on plates containing thymidine (0.3 mM) glucose (2 g/l) MS mineral medium, in aerobiosis, and stored in suspension in the same liquid medium at −80° C. The twelve clones are tested on plates containing glucose MS mineral medium supplemented with nutrient factors. All these clones are shown to require thymine or thymidine as a growth factor, unless cysteine is present in the culture medium, at a concentration of at least 1.5 mM.

[2] = tested on: strain β5366 (thyA:Val146); test: Growth on cysteine diffusion gradient in Petri dishes
Excerpt: (§1) The plasmid pTS1 thus obtained propagates the thyA:Val146 allele, in which position 146 occupied in the wild-type thyA gene by the UGC codon of cysteine is occupied by the GUA codon of valine. The plasmid pTS1 is introduced by transformation, carried out according to the method of Sambrook et al. (1989), into the E. coli K12 ΔthyA strain, β1308 (Lemeignan et al., 1993), in which the chromosomal thymidylate synthase gene, thyA, is deleted. The transformed strain carrying the thyA:Val146 plasmid allele, β5366, is shown to be incapable of growing without thymine or thymidine being added to the culture medium, as is the strain β1308 from which it derives. […] Thus, it is as though the cysteine can infiltrate into the valyl-tRNA synthetase active site to form erroneous Cys-tRNAs^Val capable of correcting the substitution of the cysteine in the thymidylate synthase active site, with valine. The excess of valine would prevent the formation of these erroneous Cys-tRNAs^Val.

strain β1308 (ΔthyA) = test: as above; conditions: 30° C., glucose MS mineral medium, central well 0.1 ml of 400 mM L-cysteine
Excerpt: as §1

[3] = tested on: strain β8144 (mutated valS); test: Zone of growth inhibition on Petri dishes, sensitivity to noncanonical amino acids; conditions: 24 h at 30° C.
Procedure: (§2) The strains β5455, β8144 and β8146 are tested for their sensitivity to artificial amino acids which show steric resemblance to valine. The test is carried out on dishes containing glucose of MS mineral medium supplemented with thymidine. The cells are cultured in aerobic medium (glucose MS mineral medium, 0.3 mM thymidine) for 24 h at 30° C. and diluted to 1/250 in MS mineral medium. 0.5 ml of this cell suspension is plated out onto Petri dishes containing 25 ml of glucose MS mineral medium. A well is then hollowed out at the center of the dish and filled with 0.1 ml of an amino acid solution:
(§3) The dishes are then incubated for 24 h at 30° C. and the possible appearance on the dishes of a zone of inhibition around the well is recorded. The diameters of the limited zones of growth inhibition on Petri dishes are measured: […]

[4] = tested on: strain β5455 (valS T222P); test: as above; conditions: 24 h at 30° C.
Procedure: as §2, §3

[5] = tested on: strain β8146 (mutated valS); test: as above; conditions: 24 h at 30° C.
Procedure: as §2, §3

[6] = tested on: strain β5366 (wild-type valS allele); test: as above; conditions: 24 h at 30° C.; for effect on growth (zone of inhibition): central well with 0.1 ml of 100 mM amino acid solution
[7] = tested on: strain β5274 (thyA:Ile146); test: Phenotypic suppression by cysteine of thyA:Ile146 strain; conditions: 0.1 mM
Procedure: The plasmid pTS2 thus obtained propagates the thyA:Ile146 allele in which position 146 occupied in the wild-type thyA gene by the UGC codon of cysteine is occupied by the AUA codon of isoleucine. The strain which propagates the thyA:Ile146 plasmid allele, β5274, is shown to require the nutritional supply of thymine, of thymidine or of cysteine in excess, as was the strain β5366. The phenotypic suppression of the strain β5274 by the cysteine is abolished with 0.1 mM of isoleucine, as was that of the strain β5366 with valine. Thus, it is as though the isoleucyl-tRNA synthetase is capable of forming erroneous Cys-tRNAs^Ile in the presence of an excess of cysteine, and that this erroneous formation is prevented by the presence of an excess of isoleucine.

modified strain β8144 = test: Phenotypic suppression by metabolic precursors of cysteine (growth factor replacement)
Excerpt: (§4) The nutrient requirement for cysteine of the modified strains β8144 and β8146 is exploited in order to characterize metabolic precursors which may substitute for cysteine in the culture medium without giving rise to degradation by oxidation. […] However, the addition of none of these substances allows growth of the strain β1308 carrying a chromosomal deletion of the thyA gene of thymidylate synthase, thus excluding their contamination with traces of thymine or of thymidine.

modified strain β8146 = test: as above
Excerpt: as §4

[8] = central well with 0.1 ml of 100 mM amino acid solution
[9] = central well with 0.1 ml of 50 mM amino acid solution

For `N[C@@H](CS)C(=O)O` [L-cysteine], the “cysteine concentration that replaces thymine or thymidine as growth factor” value [1] was “at least 1.5 mM”, the “growth on cysteine diffusion gradient” value ([2]; 30° C., glucose MS mineral medium, central well 0.1 ml of 400 mM L-cysteine) was “marginal growth” and the “growth on cysteine diffusion gradient” value (strain β1308 (ΔthyA)) was “no detectable growth”.
In the case of `CC(C)[C@H](N)C(=O)O` [valine], the “effect on growth on a cysteine gradient” value ([2]; 0.1 mM added to the medium of the Petri dishes) is reported as “abolishes the growth”.
With `CCC[C@H](N)C(=O)O` [L-2-aminovalerate] the “diameter of zone of growth inhibition” value [3, 8] was 1.5 cm, the “diameter of zone of growth inhibition” value [4, 8] was 2.1 cm and the “diameter of zone of growth inhibition” value [5, 8] was 6.7 cm. The “effect on growth (zone of inhibition)” value [6] was “no effect”.
With `CC[C@H](C)[C@H](N)C(=O)O` [isoleucine] the “effect on phenotypic suppression by cysteine” value [7] was “abolished”.
`NC(=O)SC[C@H](N)C(=O)O` [S-carbamyl-L-cysteine] was tested, and the “replacement of cysteine as growth factor instead of thymidine or thymine” value (from here on “replacement of cysteine”) (modified strain β8144; 3 mM in culture medium) was “capable of replacing cysteine as a growth factor” and the “replacement of cysteine” value (modified strain β8146; 3 mM in culture medium) was “capable of replacing cysteine as a growth factor”.
In the case of `NC[C@H](N)C(=O)O` [L-2,3-diaminopropionate], the “diameter of zone of growth inhibition” value [3, 8] is reported as 2.7 cm, the “diameter of zone of growth inhibition” value [4, 8] is reported as 2.3 cm and the “diameter of zone of growth inhibition” value [5, 8] is reported as 1.9 cm. The “effect on growth (zone of inhibition)” value [6] was “no effect”.
For `CC(S)[C@H](N)C(=O)O` (stereo partly drawn) [L-3-thiol-2-aminobutyrate], the “diameter of zone of growth inhibition” value [3, 9] was 4.0 cm, the “diameter of zone of growth inhibition” value [4, 9] was 4.6 cm and the “diameter of zone of growth inhibition” value [5, 9] was 4.0 cm. For the same compound, the “diameter of zone of growth inhibition” value [6, 9] was 2.0 cm.
`O=C(O)[C@@H]1CSCN1` [L-thiazolidine-4-carboxylic acid] was tested, and the “replacement of cysteine” value (modified strain β8144; 2 mM in culture medium) was “capable of replacing cysteine as a growth factor” and the “replacement of cysteine” value (modified strain β8146; 2 mM in culture medium) was “capable of replacing cysteine as a growth factor”.
In the case of L-2-aminobutyrate, the “diameter of zone of growth inhibition” value [3, 8] is reported as 5.7 cm, the “diameter of zone of growth inhibition” value [4, 8] is reported as 5.2 cm and the “diameter of zone of growth inhibition” value [5, 8] is reported as 6.7 cm. For the same compound, the “effect on growth (zone of inhibition)” value [6] was “no effect”.
With `CSC[C@H](N)C(=O)O` [S-methyl-L-cysteine] the “replacement of cysteine” value (modified strain β8144; 3 mM in culture medium) was “capable of replacing cysteine as a growth factor” and the “replacement of cysteine” value (modified strain β8146; 3 mM in culture medium) was “capable of replacing cysteine as a growth factor”.
